System: THP1 cells
Format: cell-based, human

SMILES: Cc1cc(-c2nc(C(=O)Nc3cc4oc(N5CCOCC5)nc4nc3N3CC[C@@H](O)C3)co2)ccn1 [CA-4948, emavusertib]
- Log(FC) of gene KCNH2: −0.6125
- Log(FC) of gene ABCC2 (CA-4948 vs DMSO in THP1 cells): 0.6855
- Log(FC) of gene AC016629.8 (CA-4948 vs DMSO in THP1 cells): 0.586
- Log(FC) of gene AC093391.2 (CA-4948 vs DMSO in THP1 cells): 0.7835
- Log(FC) of gene ADAM8 (CA-4948 vs DMSO in THP1 cells): 0.6886
- Log(FC) of gene ADAM19 (CA-4948 vs DMSO in THP1 cells): 0.5984
- Log(FC) of gene ADCY4 (CA-4948 vs DMSO in THP1 cells): 1.023
- Log(FC) of gene AMH (CA-4948 vs DMSO in THP1 cells): 0.7789
- Log(FC) of gene ANKFN1 (CA-4948 vs DMSO in THP1 cells): 0.6129
- Log(FC) of gene ANKRD34A (CA-4948 vs DMSO in THP1 cells): 0.9288
- Log(FC) of gene AP3B2 (CA-4948 vs DMSO in THP1 cells): 0.7192
- Log(FC) of gene AP000330.8 (CA-4948 vs DMSO in THP1 cells): 0.7147
- Log(FC) of gene APOE (CA-4948 vs DMSO in THP1 cells): 0.6335
- Log(FC) of gene APOLD1 (CA-4948 vs DMSO in THP1 cells): 0.7365
- Log(FC) of gene ARID3C (CA-4948 vs DMSO in THP1 cells): 0.8751
- Log(FC) of gene ARL17B (CA-4948 vs DMSO in THP1 cells): 0.6318
- Log(FC) of gene ARTN (CA-4948 vs DMSO in THP1 cells): 0.6881
- Log(FC) of gene ASIC3 (CA-4948 vs DMSO in THP1 cells): 1.28
- Log(FC) of gene ATP2B3 (CA-4948 vs DMSO in THP1 cells): 0.7931
- Log(FC) of gene AURKB (CA-4948 vs DMSO in THP1 cells): 0.6324
- Log(FC) of gene BRICD5 (CA-4948 vs DMSO in THP1 cells): 0.6636
- Log(FC) of gene BTBD19 (CA-4948 vs DMSO in THP1 cells): 0.6939
- Log(FC) of gene BVES-AS1 (CA-4948 vs DMSO in THP1 cells): 0.5945
- Log(FC) of gene BZRAP1 (CA-4948 vs DMSO in THP1 cells): 1.334
- Log(FC) of gene C1orf51 (CA-4948 vs DMSO in THP1 cells): 1.033
- Log(FC) of gene C2orf48 (CA-4948 vs DMSO in THP1 cells): 0.606
- Log(FC) of gene C5orf56 (CA-4948 vs DMSO in THP1 cells): 0.7488
- Log(FC) of gene C9orf37 (CA-4948 vs DMSO in THP1 cells): 0.6108
- Log(FC) of gene C15orf62 (CA-4948 vs DMSO in THP1 cells): 0.8673
- Log(FC) of gene C16orf86 (CA-4948 vs DMSO in THP1 cells): 0.6351
- Log(FC) of gene CACTIN-AS1 (CA-4948 vs DMSO in THP1 cells): 0.7321
- Log(FC) of gene CATSPER3 (CA-4948 vs DMSO in THP1 cells): 0.6152
- Log(FC) of gene CCDC103 (CA-4948 vs DMSO in THP1 cells): −0.6115
- Log(FC) of gene CCDC109B (CA-4948 vs DMSO in THP1 cells): 0.8991
- Log(FC) of gene CCDC154 (CA-4948 vs DMSO in THP1 cells): 0.7952
- Log(FC) of gene CCDC155 (CA-4948 vs DMSO in THP1 cells): 0.6645
- Log(FC) of gene CCDC183 (CA-4948 vs DMSO in THP1 cells): 0.9658
- Log(FC) of gene CD101 (CA-4948 vs DMSO in THP1 cells): 0.5897
- Log(FC) of gene CD163 (CA-4948 vs DMSO in THP1 cells): −0.5952
- Log(FC) of gene CD302 (CA-4948 vs DMSO in THP1 cells): 0.6021
- Log(FC) of gene CDC42EP2 (CA-4948 vs DMSO in THP1 cells): 0.6518
- Log(FC) of gene CEACAM19 (CA-4948 vs DMSO in THP1 cells): 1.259
- Log(FC) of gene CGN (CA-4948 vs DMSO in THP1 cells): 0.9021
- Log(FC) of gene CHN2 (CA-4948 vs DMSO in THP1 cells): 0.8531
- Log(FC) of gene CHRFAM7A (CA-4948 vs DMSO in THP1 cells): −0.9429
- Log(FC) of gene CILP2 (CA-4948 vs DMSO in THP1 cells): 0.8989
- Log(FC) of gene CLDN15 (CA-4948 vs DMSO in THP1 cells): 0.6387
- Log(FC) of gene CLEC10A (CA-4948 vs DMSO in THP1 cells): 0.6157
- Log(FC) of gene CLEC12B (CA-4948 vs DMSO in THP1 cells): 0.7555
- Log(FC) of gene CLK1 (CA-4948 vs DMSO in THP1 cells): 1.08
- Log(FC) of gene CLK3 (CA-4948 vs DMSO in THP1 cells): 0.9323
- Log(FC) of gene CLK4 (CA-4948 vs DMSO in THP1 cells): 0.8127
- Log(FC) of gene CMTM1 (CA-4948 vs DMSO in THP1 cells): 1.158
- Log(FC) of gene CNIH2 (CA-4948 vs DMSO in THP1 cells): 0.9526
- Log(FC) of gene CNKSR1 (CA-4948 vs DMSO in THP1 cells): 0.9226
- Log(FC) of gene COL7A1 (CA-4948 vs DMSO in THP1 cells): 1.605
- Log(FC) of gene CPNE5 (CA-4948 vs DMSO in THP1 cells): 0.7008
- Log(FC) of gene CPT1B (CA-4948 vs DMSO in THP1 cells): 1.318
- Log(FC) of gene CRABP2 (CA-4948 vs DMSO in THP1 cells): 3.095
- Log(FC) of gene CTRL (CA-4948 vs DMSO in THP1 cells): 1.027
- Log(FC) of gene DCAF4L1 (CA-4948 vs DMSO in THP1 cells): 1.097
- Log(FC) of gene DCAKD (CA-4948 vs DMSO in THP1 cells): 0.6901
- Log(FC) of gene DCST2 (CA-4948 vs DMSO in THP1 cells): 1.278
- Log(FC) of gene DDB2 (CA-4948 vs DMSO in THP1 cells): 0.5883
- Log(FC) of gene DEGS2 (CA-4948 vs DMSO in THP1 cells): 0.6503
- Log(FC) of gene DMPK (CA-4948 vs DMSO in THP1 cells): 0.6345
- Log(FC) of gene DNAH1 (CA-4948 vs DMSO in THP1 cells): 0.6015
- Log(FC) of gene DNAJC27-AS1 (CA-4948 vs DMSO in THP1 cells): 0.6304
- Log(FC) of gene DNASE1L2 (CA-4948 vs DMSO in THP1 cells): 1.008
- Log(FC) of gene DND1 (CA-4948 vs DMSO in THP1 cells): 1.389
- Log(FC) of gene DNHD1 (CA-4948 vs DMSO in THP1 cells): 1.083
- Log(FC) of gene DRP2 (CA-4948 vs DMSO in THP1 cells): 0.9019
- Log(FC) of gene EFCAB12 (CA-4948 vs DMSO in THP1 cells): 1.697
- Log(FC) of gene EGFR (CA-4948 vs DMSO in THP1 cells): 0.882
- Log(FC) of gene EIF3CL (CA-4948 vs DMSO in THP1 cells): 0.7466
- Log(FC) of gene ELMO3 (CA-4948 vs DMSO in THP1 cells): 0.7963
- Log(FC) of gene ENHO (CA-4948 vs DMSO in THP1 cells): 0.7452
